Data taken from patent publication US20070184175A1, “CONTINUOUS PRODUCTION OF CEREAL FLOUR AND WHOLE-CEREAL FLOUR FOR GRAIN-BASED FOODS, USING A LOW-MOISTURE PRECOOKING” (priority 2005, published 2007).

Key:
[1] = Davalos et al. (2004); cited from earlier work
[2] = concentration of Trolox solution with equivalent antioxidant capacity to a 1 mM concentration of the compound; cited from earlier work
[3] = design: concentration or dose not given beside the values; details: Kikuzaki et al. (2002); cited from earlier work
[4] = ABTS radical scavenging assay; format: biochemical; details: Intasa-Chromadex analytical test report, 2006; gallic as positive-control
Experimental: Kikuzaki et al. (2002) previously published the DPPH radical-scavenging and increasing inhibition effects of ferulic, oryzanol (steryl-ferulate), BHT, α-tocopherol (Trolox) and gallic acid (27%<21%<29%<42%<76%). A TEAC test was defined as the concentration of Trolox solution with equivalent antioxidant capacity to a 1 mM concentration of the compound (Rice-Evans et al. 1996). Similar increasing values were found for α-tocopherol (Trolox), caffeic, ferulic and gallic acid (1.0<1.3<1.9<3.0). It also reflects the ability of hydrogen-donating antioxidants to scavenge the ABTS-radical). However, Davalos et al. (2004) used a different ORAC-FL (Oxygen radical absorbance capacity) test which described the μmol trolox equivalents per μmol of pure compound: BHA (synthetic), ferulic and protocatechuic (similar to gallic) with increasing values of 2.4, 4.5 and 6.7, respectively. This latter assay has been largely applied to assess free radical scavenging capacity of human plasma, proteins, DNA, pure antioxidant compounds and new antioxidants from plant and food extracts (Prior et al. 1999).

[5] = ingestion or topical applications; cited from earlier work

O=C(O)c1ccc(O)c(O)c1 [protocatechuic]
ORAC-FL [1]: 6.7 μmol trolox equivalents per μmol of pure compound

O=C(O)/C=C/c1ccc(O)c(O)c1 [caffeic]
TEAC [2]: 1.3

Cc1c(C)c2c(c(C)c1O)CC[C@@](C)(CCC[C@H](C)CCC[C@H](C)CCCC(C)C)O2 [α-tocopherol (Trolox), α-tocopherol]
TEAC [2]: 1.0 | DPPH radical-scavenging inhibition effect [3]: 42%

O=C(O)c1cc(O)c(O)c(O)c1 [gallic, gallic acid]
TEAC [2]: 3.0 | IC50 or 50% inhibition value, ABTS radical scavenging [4]: 1.5 ppm | DPPH radical-scavenging inhibition effect [3]: 76%

COc1cc(/C=C/C(=O)O)ccc1O [ferulic, ferulic acid]
ORAC-FL [1]: 4.5 μmol trolox equivalents per μmol of pure compound | TEAC [2]: 1.9 | acute or chronic side effects [5]: No acute or chronic side effects | IC50 or 50% inhibition value, ABTS radical scavenging [4]: 3.3 ppm | DPPH radical-scavenging inhibition effect [3]: 27%

oryzanol
DPPH radical-scavenging inhibition effect [3]: 21%

Cc1cc(C(C)(C)C)c(O)c(C(C)(C)C)c1 [BHT]
DPPH radical-scavenging inhibition effect [3]: 29%

COc1ccc(O)c(C(C)(C)C)c1 [BHA]
ORAC-FL [1]: 2.4 μmol trolox equivalents per μmol of pure compound
